Data on one molecule can be found in patent US8685928B2, “Antagonists of MUC1” (Dana-Farber Cancer Institute, Inc., priority 2010, dated 2014).

Entries after “also recorded” stand apart in the source; their conditions may differ. Positions of bridges follow the written chain, without caps; N, C: chain ends. Non-standard residues stand in square brackets, D forms with d. Residues, ends and D or L forms follow the SMILES beside them.

Data set [1] can be described thus: Redox conversion in the presence of glutathione. The following applies: in the presence of low levels of glutathione. In kind it is physicochemical. An excerpt:
The drug substance is isolated as the disulfide, with the disulfide bond cyclizing the D-cys10 and D-cys12 residues. The synthesis, cleavage, oxidation and purification steps use standard solid phase procedures as described in the literature. A solution phase procedure for converting the peptide to the cyclic disulfide was developed. […] The biological properties of GO-203-2c will in part be governed by glutathione, which provides a significant portion of in vivo redox buffering capacity as mentioned above. Total glutathione levels approximate 20-30 μM in blood plasma, 0.5 mM in whole blood, and 5-10 mM intracellularly. […] Intracellular glutathione concentrations are sufficient to convert GO-203-2c (disulfide) to the GO-203-2 (dithiol) species that binds to the biological target, MUC1-CD.

Data set [2] concerns ZR-75-1 human breast carcinoma xenograft. The data set is described as follows: ZR-75-1 xenograft model, 5 days on/2 days off IV dosing schedule. In kind it is in vivo, mouse. Conditions: for Mice completely cured / Tumor response: 7.5 mg/kg IV. As to the method:
In a second study using this ZR-75-1 cell xenograft model, a 5 days on/2 days off IV dosing schedule was used, and groups of 8 mice received either one, two or three cycles utilizing this schedule. […] Tumor growth was cytostatic for 4-5 days after stopping the drug treatment, but tumors subsequently started re-growing similarly to control. […] Tumors in the remaining 5 of 8 mice in this group started re-growing at 8+ days after cessation of treatment. These animals were administered an additional 2 cycles of treatment, starting on Day 29.

On to `CC(=O)N[C@H](CCCNC(=N)N)C(=O)N[C@H](CCCNC(=N)N)C(=O)N[C@H](CCCNC(=N)N)C(=O)N[C@H](CCCNC(=N)N)C(=O)N[C@H](CCCNC(=N)N)C(=O)N[C@H](CCCNC(=N)N)C(=O)N[C@H](CCCNC(=N)N)C(=O)N[C@H](CCCNC(=N)N)C(=O)N[C@H](CCCNC(=N)N)C(=O)N[C@@H]1CSSC[C@H](C(=O)N[C@H](CCCNC(=N)N)C(=O)N[C@H](CCCNC(=N)N)C(=O)N[C@H](CCCCN)C(=O)N[C@H](CC(N)=O)C(N)=O)NC(=O)[C@@H](CCC(N)=O)NC1=O` [GO-203-2c, Ac-(D)Arg-(D)Arg-(D)Arg-(D)Arg-(D)Arg-(D)Arg-(D)Arg-(D)Arg-(D)Arg-(D)Cys-(D)Gln-(D)Cys-(D)Arg-(D)Arg-(D)Lys-(D)Asn-NH2 disulfide] (Ac-[dR][dR][dR][dR][dR][dR][dR][dR][dR][dC][dQ][dC][dR][dR][dK][dN]-NH2; disulfide 10-12), for which the “Conversion of disulfide to reduced (dithiol) form” value in data set [1] is listed as “readily re-forms the reduced (dithiol) GO-203-2 peptide”. The results for the Mice completely cured entry in data set [2] (2 dosing cycles) and in data set [2] (3 dosing cycles) were “Two of 8” and “Three of 8”, respectively. The Tumor response result is “Tumor regression” in data set [2] (2 dosing cycles (5 days on/2 days off)); “tumor growth arrest during the treatment period, but the tumors resumed growth; also recorded: substantial regression of tumors” in data set [2] (3 dosing cycles (5 days on/2 days off)); “partial tumor regression” in data set [2] (one dosing cycle (5 days on/2 days off)). Moreover, the “Tumor response after re-dosing” value in data set [2] (additional 2 cycles from Day 29 in 5 mice with re-growing tumors) is recorded as “somewhat stabilized with very slow growth”.
